This is an account of results in patent US9708314B2, “Heterocyclic amide compound” (NISSAN CHEMICAL INDUSTRIES, LTD., priority 2013, dated 2017).

Type in all cases: in vivo
The subject of one experiment is Digitaria ciliaris. The experiment in a line: Test Example 4: herbicidal effect by application to foliage (diluvial soil, plastic box). The conditions noted are these: foliage application, 320 g/ha. The method, boiled down:
(§1)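 Emulsion-formulated compound, diluted to a predetermined g/ha dose, applied by small sprayer to leaves and stems of 14-day-old seedlings grown in sterilized diluvial soil. Effect rated on 0–5 herbicidal-ratio scale three weeks on.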

In the next experiment the test system is Abutilon theophrasti. Described as above. The conditions noted are these: foliage application, 320 g/ha. The method, boiled down:
as §1

The subject of another experiment is Avena fatua. The description is as above. The conditions noted are these: foliage application, 320 g/ha. The method, boiled down:
as §1

Another experiment has as its system Stellaria media. Described as above. The conditions noted are these: foliage application, 320 g/ha. The method, boiled down:
as §1

Another experiment concerns Veronica persica. The description is as above. The conditions noted are these: foliage application, 320 g/ha. The method, boiled down: as §1
The subject of another experiment is Apera spica-venti. The description is as above. The conditions noted are these: foliage application, 320 g/ha. The method, boiled down:
as §1

The test system of another experiment is Alopecurus myosuroides. The description is as above. The conditions noted are these: foliage application, 320 g/ha. A digest of the protocol:
as §1

The test system of the next experiment is Chenopodium album. Described as above. The conditions noted are these: foliage application, 320 g/ha. A digest of the protocol: as §1
A further experiment concerns Setaria viridis. The experiment is described as above. The conditions noted are these: foliage application, 320 g/ha. The method, boiled down:
as §1

A further experiment has as its system Amaranthus retroflexus. The description is as above. The conditions noted are these: foliage application, 320 g/ha. The method, boiled down: as §1
The subject of experiment [1] is Echinochloa crus-galli var. crus-galli. The description is as above. The conditions noted are these: foliage application, 320 g/ha. The method, boiled down: as §1
In another experiment the test system is Lolium multiflorum Lam. The description is as above. The conditions noted are these: foliage application, 320 g/ha. A digest of the protocol: as §1
In another experiment the test system is Scirpus juncoides. In words: Test Example 2: herbicidal activity, application during weed generation in submerged conditions. The conditions noted are these: Eighteenth Table; application herbicide amount 320 g/ha. A digest of the protocol:
(§2)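 Post-emergence application under submerged conditions: water-diluted emulsion dosed onto the water surface (g/ha) when weeds reach one- to two-leaf stage. Soil flooded to 4 cm; greenhouse 25–30 °C. Herbicidal ratio graded in six classes, 0 (≤5%) to 5 (≥90%), at three weeks.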

Another experiment has as its system Monochoria vaginalis. Described as above. The conditions noted are these: Eighteenth Table; application herbicide amount 320 g/ha. A digest of the protocol:
as §2

In experiment [2] the test system is Echinochloa oryzacola Vasing. Described as above. The conditions noted are these: Eighteenth Table; application herbicide amount 320 g/ha. A digest of the protocol:
as §2

In the case of `Cn1nnnc1NC(=O)c1ccc(C(F)(F)F)n2c(CCS(C)(=O)=O)nnc12` [2-059], in the experiment with Digitaria ciliaris, the “F (Digitaria ciliaris) herbicidal effect grade” value is reported as 5 (Herbicidal ratio of 90% or more (almost completely withered)). The “M (Abutilon theophrasti) herbicidal effect grade” value with Abutilon theophrasti is listed as 5 (Herbicidal ratio of 90% or more (almost completely withered)). The “I (Avena fatua) herbicidal effect grade” value with Avena fatua is 4 (Herbicidal ratio of 70% or more and less than 90%). Further, the “P (Stellaria media) herbicidal effect grade” value in the experiment with Stellaria media was 5 (Herbicidal ratio of 90% or more (almost completely withered)). The “R (Veronica persica) herbicidal effect grade” value in the experiment with Veronica persica is 5 (Herbicidal ratio of 90% or more (almost completely withered)). Also, the “L (Apera spica-venti.) herbicidal effect grade” value in the experiment on Apera spica-venti. was 4 (Herbicidal ratio of 70% or more and less than 90%). Further, in the experiment on Alopecurus myosuroides, the “J (Alopecurus myosuroides) herbicidal effect grade” value is 4 (Herbicidal ratio of 70% or more and less than 90%). Besides, in the experiment on Chenopodium album, the “O (Chenopodium album) herbicidal effect grade” value is recorded as 5 (Herbicidal ratio of 90% or more (almost completely withered)). Moreover, in the experiment on Setaria viridis, the “G (Setaria viridis) herbicidal effect grade” value is recorded as 5 (Herbicidal ratio of 90% or more (almost completely withered)). For the same compound, the “N (Amaranthus retroflexus) herbicidal effect grade” value in the experiment with Amaranthus retroflexus is listed as 5 (Herbicidal ratio of 90% or more (almost completely withered)). Moreover, in [1], the “H (Echinochloa crus-galli var. crus-galli) herbicidal effect grade” value is given as 5 (Herbicidal ratio of 90% or more (almost completely withered)). Moreover, in the experiment with Lolium multiflorum Lam., the “K (Lolium multiflorum Lam.) herbicidal effect grade” value was 4 (Herbicidal ratio of 70% or more and less than 90%). The “B (Scirpus juncoides) herbicidal ratio grade” value in the experiment with Scirpus juncoides was 3 (Herbicidal ratio of 40% or more and less than 70%). The “C (Monochoria vaginalis) herbicidal ratio grade” value in the experiment with Monochoria vaginalis is 4 (Herbicidal ratio of 70% or more and less than 90%). In [2], the “A (Echinochloa oryzicola Vasing.) herbicidal ratio grade” value was 4 (Herbicidal ratio of 70% or more and less than 90%).

As to `Cn1nnnc1NC(=O)c1ccc(C(F)(F)F)n2c(-c3cccs3)nnc12` [2-061], in the experiment with Digitaria ciliaris, the “F (Digitaria ciliaris) herbicidal effect grade” value is 5 (Herbicidal ratio of 90% or more (almost completely withered)). Besides, the “M (Abutilon theophrasti) herbicidal effect grade” value in the experiment with Abutilon theophrasti was 4 (Herbicidal ratio of 70% or more and less than 90%). Moreover, in the experiment with Avena fatua, the “I (Avena fatua) herbicidal effect grade” value is 4 (Herbicidal ratio of 70% or more and less than 90%). Further, in the experiment with Stellaria media, the “P (Stellaria media) herbicidal effect grade” value was 5 (Herbicidal ratio of 90% or more (almost completely withered)). The “R (Veronica persica) herbicidal effect grade” value with Veronica persica is 5 (Herbicidal ratio of 90% or more (almost completely withered)). In the experiment with Apera spica-venti., the “L (Apera spica-venti.) herbicidal effect grade” value is 3 (Herbicidal ratio of 40% or more and less than 70%). For the same compound, the “J (Alopecurus myosuroides) herbicidal effect grade” value in the experiment with Alopecurus myosuroides is 3 (Herbicidal ratio of 40% or more and less than 70%). Moreover, the “O (Chenopodium album) herbicidal effect grade” value in the experiment with Chenopodium album is 5 (Herbicidal ratio of 90% or more (almost completely withered)). Also, the “G (Setaria viridis) herbicidal effect grade” value in the experiment on Setaria viridis was 5 (Herbicidal ratio of 90% or more (almost completely withered)). In the experiment with Amaranthus retroflexus, the “N (Amaranthus retroflexus) herbicidal effect grade” value is 5 (Herbicidal ratio of 90% or more (almost completely withered)). The “H (Echinochloa crus-galli var. crus-galli) herbicidal effect grade” value in experiment [1] is 5 (Herbicidal ratio of 90% or more (almost completely withered)). For the same compound, the “K (Lolium multiflorum Lam.) herbicidal effect grade” value in the experiment with Lolium multiflorum Lam. is 4 (Herbicidal ratio of 70% or more and less than 90%). For the same compound, the “B (Scirpus juncoides) herbicidal ratio grade” value in the experiment on Scirpus juncoides is listed as 5 (Herbicidal ratio of 90% or more (almost completely withered)). Besides, in the experiment on Monochoria vaginalis, the “C (Monochoria vaginalis) herbicidal ratio grade” value is 5 (Herbicidal ratio of 90% or more (almost completely withered)). For the same compound, the “A (Echinochloa oryzicola Vasing.) herbicidal ratio grade” value in experiment [2] is 4 (Herbicidal ratio of 70% or more and less than 90%).
